Assay: method code SF, from Hansch, C. & Leo, A. (1987). Log P database [Dataset]. Pomona College Medicinal Chemistry Project.

SMILES	logP	other results
CCOP(=O)(OCC)SCn1nnc2ccccc2c1=O	1.63	–
c1ccc2c(c1)OCCO2	2.01	–
CC(=O)c1ccc2ccccn12	2.06	–
COc1ccc(C=O)cc1	–	logD (pH 7.0): 1.61
Nc1nccs1	0.38	–
CC(C(=O)N(C)c1ccc(S(=O)(=O)N(C)C)cc1)c1ccccc1 (stereo not given)	1.73	–
NC(=O)c1ccc(F)cc1	0.91	–
COc1ccc(C(N)=O)cc1	0.86	–
CC(=O)Oc1ccccc1C#N	1.33	–
Cc1ccncc1	1.22	–
CC(CN1CC(=O)NC(=O)C1)N1CC(=O)NC(=O)C1 (stereo not given)	–	logD (pH 7.4): -1.74
NS(=O)(=O)c1ccc(C(=O)c2ccncc2)cc1	0.56	–
CN(C(=O)CCI)c1ccc(S(=O)(=O)N(C)C)cc1	1.39	–
O=Nc1ccc(O)c2ccccc12	2.27	–
Cc1c(N2CCOCC2)c(=O)n(-c2ccccc2)c(=O)n1C	–	logD (pH 7.4): 0.69
NC(=O)c1cccc(OC(=O)CNC(=O)c2ccccc2)c1	1.2	–
CNP(=O)(OC)Oc1cc(Cl)c(Cl)cc1Cl (stereo not given)	3.06	–
COc1cccc2c1C(=O)c1c(O)c3c(c(O)c1C2=O)CC(O)(C(=O)CN1CCOCC1)CC3OC1CC(N)C(O)C(C)O1 (stereo not given)	0.23	–
CC1CCC(O)CC1 (stereo not given)	1.79	–
CCCCC1OC(=O)c2cc(NC(C)=O)ccc21 (stereo not given)	2.77	–
CCCC(=O)Nc1ccc(Cl)c(Cl)c1	3.77	–
Nc1cc(=O)[nH]cn1	-0.99	–
OCCCC(F)(F)F	0.9	–

SMILES	logP	other results
O=C(OC(=O)c1ccccc1)c1ccccc1	2.26	–
CC1=Nc2cc(Cl)ccc2S(=O)(=O)N1	1.21	–
FC(F)(F)c1cccc2cccnc12	2.5	–
CS(=O)(=O)Nc1cccc(NS(C)(=O)=O)c1	0.07	–
O=C1c2c(O)ccc(O)c2C(=O)c2c(NCCNCCO)ccc(NCCNCCO)c21	0.07	–
CCC(O)CC	1.21	–
CO[C@H]1/C=C\O[C@@]2(C)Oc3c(C)c(O)c4c(O)c(c(/C=N/OCCCc5ccccc5)c(O)c4c3C2=O)NC(=O)/C(C)=C\C=C/[C@H](C)[C@H](O)[C@@H](C)[C@@H](O)[C@@H](C)[C@H](OC(C)=O)[C@@H]1C	4.83	–
NC(=O)c1ccccc1F	0.64	–
CC(=O)NCCC(=O)N(C)c1ccc(S(=O)(=O)N(C)C)cc1	-0.35	–
CNCc1cccnc1	–	logD (pH 11.0): 0.39
C1OCOCO1	-0.43	–
COC(=O)CNC(=O)c1ccccc1	0.82	–
N#Cc1cccc(OC(=O)CNC(=O)c2ccccc2)c1	2.11	–
CCCCCCCCOC(=O)c1cccc(C(=O)OCCCCCCCC)c1	5.55	–
N#CN=[N+]([O-])c1ccc(Cl)cc1	2.33	–
O=Cc1ccc2c(c1)OCO2	1.05	–
CC(C)CO	0.65	–
CN1C(=O)c2ccccc2C1=O	1.31	–
CCOP(=O)(OCC)SCS(=O)CC (stereo not given)	1.69	–
O=CC=Cc1ccco1	1.15	–
O=Nc1ccc(O)cc1	1.29	–
CCc1ccccc1NC(C)=O	1.33	–
N#CN=[N+]([O-])c1cccc(C(F)(F)F)c1	2.52	–

SMILES	logP	other results
CC(=O)c1ccccc1O	1.88	–
CC=CC(=O)Nc1ccc(Cl)c(Cl)c1	3.63	–
COc1cccc(OC(=O)N(C)C)c1	1.6	–
CC1=Nc2ccc(F)cc2S(=O)(=O)N1	0.62	–
Cc1ccc(C(=O)c2ccncc2)cc1	2.51	–
Nc1cccc(OC(=O)CNC(=O)c2ccccc2)c1	1.3	–
Cn1ccccc1=O	-0.23	–
CN(C)CCN(C)C	0.3	–
Nc1ccc(C(F)(F)F)cc1	–	logD (pH 7.4): 2.39
CC(=O)Oc1ccccc1Cl	2.18	–
CC(=O)OCCC(=O)N(C)c1ccc(S(=O)(=O)N(C)C)cc1	0.26	–
O[C@@H]1CCCC[C@H]1O	0.08	–
CO[C@@H]1O[C@H](COC(C)=O)[C@@H](OC(C)=O)[C@H](NC(=O)N(CCCl)N=O)[C@H]1OC(C)=O	0.67	–
Cc1c([N+](=O)[O-])cc(C(N)=O)cc1[N+](=O)[O-]	0.68	–
O=C(NP(=O)(N1CC1)N1CC1)c1cc(I)ccc1I	1.35	–
[O-][n+]1ccccc1SCc1ccccc1	1.24	–
CCOC(=O)C(=Cc1ccc(Cl)cc1Cl)C(=O)OCC	3.49	–
CC#CC	1.46	–
CC(=O)CCC(=O)N(C)c1ccc(S(=O)(=O)N(C)C)cc1	0.2	–
O=c1cnc2ccccc2[nH]1	0.8	–
CNc1nc2ccccc2o1	1.82	–
CS(=O)(=O)c1cccc([N+](=O)[O-])c1	–	logD (pH 7.0): 0.5
Cc1c(N(C)C)c(=O)[nH]c(=O)n1-c1ccccc1	–	logD (pH 7.4): 1.4

SMILES	logP	other results
CN(C)CCCN1c2ccccc2Sc2ccc(S(C)(=O)=O)cc21	3.5	–
COc1cccc(S(C)(=O)=O)c1	–	logD (pH 7.0): 0.86
Cc1n[nH]cc1[N+](=O)[O-]	0.19	–
CCOP(=S)(OCC)Oc1ccc(SC)cc1Cl	4.4	–
c1ccc(-c2nc3ccccc3s2)cc1	4.26	–
O=C(NC1CC1)c1cc(N2CC2)c([N+](=O)[O-])cc1[N+](=O)[O-]	0.74	–
FC(F)(F)Sc1ccccc1	3.57	–
C=C(F)F	1.24	–
N#CCc1ccsc1	1.26	–
O=C1OC2(CCCC2)c2ccccc21	2.56	–
COc1cccc(C(C)=O)c1	–	logD (pH 7.0): 1.84
Cc1ccc(N)nc1	1.02	–
O=Cc1ccc([N+](=O)[O-])cc1	–	logD (pH 7.0): 1.56
COc1ccc(N2C(N)=NC(N)=NC2(C)C)cc1	–	logD (pH 13.0): 0.4
c1cc2n(n1)CCN2	–	logD (pH 7.4): -0.25
CSCC1=C(C(=O)O)N2C(=O)C(NC(=O)Cc3cccs3)C2SC1 (stereo not given)	–	logD (pH 3.0): 1.01
Cc1c(N2CCCCC2)c(=O)n(-c2ccccc2)c(=O)n1C	–	logD (pH 7.4): 2.76
CCCc1ccc2c(c1)C(=O)c1ccc(NC(C)=O)cc1S2(=O)=O	3.51	–
O=C(O)C(CO)c1ccccc1 (stereo not given)	–	logD (pH 1.0): 0.77
Cc1ccco1	1.85	–
COc1ccccc1N	1.18	–
O=C1c2ccccc2C(=O)N1CCCCBr	2.96	–
Clc1ccc2ncccc2c1	2.73	–

SMILES	logP	other results
CC(C)(C)N	0.4	–
COc1ccc2[nH]c(CCCc3nc4cc(OC)ccc4[nH]3)nc2c1	1.75	–
O=C(O)c1csc(C=Cc2ccc([N+](=O)[O-])o2)n1	-0.03	–
O=C(O)c1ccccc1Oc1ccccc1	–	logD (pH 1.0): 3.11
CC(C)(C)[N+]([O-])=NC#N	1.4	–
O=[N+]([O-])c1cn[nH]c1	0.59	–
CCC1(c2ccccc2)CCC(=O)NC1=O (stereo not given)	1.9	–
C1OC1CN1CCN(CC2CO2)CC1 (stereo not given)	-0.84	–
CC(C)c1ccc(C(N)=O)cc1	2.14	–
c1ccc2[nH]c(CCCCc3nc4ccccc4[nH]3)nc2c1	1.59	–
CC(=O)Nc1ccc(C(C)(C)C)cc1	3.05	–
OCC(F)(F)C(F)(F)F	1.23	–
CCNC(=O)CBr	0.34	–
CCOc1ccccc1OC	1.73	–
CCCC1CC(C(=O)NC(C(C)Cl)C2OC(SCC)C(O)C(O)C2O)N(CC)C1 (stereo not given)	–	logD (pH 12.0): 3.18
CCCC(=O)Nc1ccccc1	2.05	–
COc1cc(C=NOC(=O)c2cc(OC)c(OC)c(OC)c2)ccc1OCCO	2.7	–
CS(=O)(=O)F	–	logD (pH 1.0): 0.55
O=C(O)C(c1ccccc1)c1ccccc1	–	logD (pH 1.0): 3.09
O=S1(=O)NC(C2CCC2)=Nc2ccc(Cl)cc21	2.24	–
CC(C)(C)c1ccc(C(N)=O)cc1	2.51	–
c1ccc(CSc2cnn[nH]2)cc1	2.65	–
CC(=O)NC1CCSC1=O (stereo not given)	-0.35	–
